Reference: US5252566A, “Antithrombotic agents” (priority 1992, dated 1993)
Structures can show the parent of a compound that is named as a salt. Where two headings read alike, the source gives them in different places. Where a SMILES comes first, the peptide text is derived from it. [ ]: non-standard residue; d: D form. dTic = O=C(O)[C@H]1Cc2ccccc2CN1; Aze = O=C(O)[C@@H]1CCN1

Biological target: T1, thrombin (Bos taurus, UniProt P00735)
T1 construct: purchased
Assay: biochemical
Protocol: The assay was carried out in 50 μl buffer (0.03M Tris, 0.15M NaCl, pH 7.4) with 25 μl of thrombin solution (0.21 mg/ml of thrombostat powder in 0.06M Tris, 0.3M NaCl, pH 7.4) and 150 μl of an aqueous solution of the chromogenic substrate at a concentration of 0.25 mg/ml. Solutions of test compound (25 μl) at various concentrations were added. Rates of hydrolysis of the substrate were measured by monitoring the reactions at 405 nm for the release of p-nitroaniline. Standard curves were constructed by plotting free thrombin concentration against hydrolysis rate. […] The amount of free inhibitor in each assay was calculated by subtracting the number of moles of bound thrombin from the number of moles of added inhibitor (test compound).
The Kass value is the hypothetical equilibrium constant for the reaction between thrombin and the test compound (I). [drawing 23]
Kass was calculated for a range of concentrations of test compounds and the mean value is reported in units of liter per mole.

[1] = Table 1, mean over a range of concentrations of test compound, pH 7.4, read-out: Kass × 10^6 (Thrombin Inhibition Levels) (converted)

Compound | Kd [1] | Kd
CC(C)(C)OC(=O)NC(C)(C(=O)N1CC[C@H]1C(=O)N[C@H](C=O)CCCNC(=N)N)c1ccccc1 (mixture of isomers) [Boc--DL--Phg(α-CH3)--Azt--Arg--H, N--Boc--DL--Phg(α-CH3)--Azt--Arg--H] |  | 90.9 nM
N=C(N)NCCC[C@@H](C=O)NC(=O)[C@@H]1CCN1C(=O)C1NCCc2ccccc21 (mixture of isomers) [DL-1-Tiq--Azt--Arg--H, DL-1,2,3,4-tetrahydroisoquinolin-1-oyl-L-azetidinyl-L-arginine aldehyde sulfate] | 37 nM | 
CC(=O)N[C@@](C)(C(=O)N1CC[C@H]1C(=O)N[C@H](C=O)CCCNC(=N)N)c1ccccc1 [Ac--D--Phg(α-CH3)--Azt--Arg--H, N--Acetyl--D--Phg(α-CH3)--Azt--Arg--H] | 14.3 nM | 
N=C(N)NCCC[C@@H](C=O)NC(=O)[C@@H]1CCN1C(=O)[C@H]1Cc2ccccc2CN1 [D-3-Tiq--Azt--Arg--H, D-1,2,3,4-Tetrahydroisoquinolin-3-oyl-L-azetidin-2-oyl-L-arginine aldehyde sulfate] (H-[dTic]-[Aze]-Arg-aldehyde) | 28.6 nM | 
C[C@](NC(=O)C(F)(F)F)(C(=O)N1CC[C@H]1C(=O)N[C@H](C=O)CCCN=C(N)N)c1ccccc1 [TFA--D--Phg(α-Me)--Azt--Arg--H, N-[N-trifluoracetyl-D-(α-methyl)phenylglycyl)-L-azetidinyl-L-argininealdehyde hydrochloride] | 7.87 nM | 

Next, values leading:

Kd [1] | Kd | Compound
66.7 nM |  | CC(=O)NC(C)(C(=O)N1CC[C@H]1C(=O)N[C@H](C=O)CCCNC(=N)N)c1ccccc1 (mixture of isomers) [Ac--Phg(α-CH3)--Azt--Arg--H, N--Acetyl--DL--Phg(α-CH3)--Azt--Arg--H]
 | 16.4 nM | CC(C)(C)OC(=O)N[C@@](C)(C(=O)N1CC[C@H]1C(=O)N[C@H](C=O)CCCN=C(N)N)c1ccccc1 [Boc--D--Phg(α-CH3)--Azt--Arg--H, N--Boc--D--Phg(α-CH3)--Azt--Arg--H]
